Legend:
[1] = Action on sleep by barbiturates; format: in vivo, Wistar-Ocefa rats
Experimental: […] Loss of the redressment reflex was taken to indicate commencement of sleep. The chlorophenazone was administered orally with a dose of 1/10 of the DL50. The induction time and the duration of sleep were measured.

[2] = Edema by carrageen in normal and adrenoprival (suprarenectomised) rats; format: in vivo, rat; parameters: Edema by carrageen: unit not given beside the values
Experimental: A 1% physiological solution of carrageen was used. Rats of the Wistar-Roux-Ocefa stock having a weight of 150±30 g were used. The drugs were suspended in 1% carboxymethylcellulose or dissolved in distilled water and administered orally one hour before the inflammatory agent in a volume of 0.5 ml/100 g. The carrageen was adminstered subcutaneously in the subplanetary region of one of the rear paws. The volume of the paw was measured platysmagraphically initially and then after 1.5 hour, 3 hours and 5 hours after administering the carrageen. One inflammation unit was defined as the displacement of 0.01 ml of Hg.
The edema was evaluated as the difference in volume of the rear paw before and after the carrageen. The DE 50 was calculated by the probits method and graphically. The comparison drugs used were phenylbutazone and niflumic acid.
To evaluate if the activity of the chlorophenazole on edema by carrageen was influenced by stimulation of the suprarenes, experiments were carried out with suprarenectomised rats. Normal rats were also compared with falsely operated rats to evaluate the influence of the operational trauma.

in vivo = conditions: rat
Rabbit = experiment: Acute toxicity, rabbit; format: in vivo; conditions: intravenous injection
Experimental: (b) Rabbit: by intravenous injection DL100 =55 mg/kg

[3] = Pulminary edema by carrageen (Sancilio method, pleural exudate); format: in vivo, Wistar-Roux-Ocefa rats
Experimental: Using the Sancilio method (Sancilio F. L., J. Pharmacol. Exptl. Therap., 168, 199 (1969); Sancilio L. F. Rodrigues R., Proc. Soc. Exptl. Biol. Med., 123, 707 (1969); Sancilio L. F. Lawrence R., Proc. Soc. Exptl. Biol. Med., 127, 597 (1968), pulminary irritation was induced in Wistar-Roux-Ocefa rats and the capacity of chlorophenazole and other drugs to prevent production of pleural exudate was measured. 5 ml of a 0.025% carrageen solution and 0.075% Evans blue were injected into the pleurea.
The action of chlorophenazole, mepyrazole and phenylbutazone were evaluated from the quantity of exudate present in the pleural cavity after 1 and 6 hours.

[4] = Stretching by acetic acid (chemical stimulus), analgesic activity; format: in vivo, mice, Rockland-Roux-Ocefa stock
Experimental: Twelve mice of both sexes, Rockland-Roux-Ocefa stock of weight 23-25 g were used per group. The drugs were administered orally 30 minutes before i.p. injection of 0.1 ml/10 g of 0.6% acetic acid.

Acute toxicity, mouse = conditions: in vivo, read-out: DL50 and L.F.
rats = experiment: Chronic toxicity, second experiment (5 months); format: in vivo, Wistar-Ocefa rats; conditions: for cholesterol: male rats
Experimental: Wistar-Ocefa rats of both sexes weighing 70-90 g were used, divided into groups of 30 animals (15 males and 15 females) to a total of […].
Chlorophenazole and phenylbutazone (reference drug) were administered orally for a period of 60 days in doses of 30-60 mg/kg of chlorophenazole and 8-160 mg/kg of phenylbutazone (first experiment) and for a period of 5 months in doses of 6-12 mg/kg of chlorophenazole and 16 mg/kg of phenylbutazone (second experiment).
The following parameters were determined periodically: behavior, general state, food consumption, body weight, red blood cell number, white blood cell number, leucocite formula, hemoglobin, hematocrit, globular value, total proteins, glycemia, azotemia, cholesterol, total lipids, triglycerides, creatinine, GOT, GPT, urine analysis. At the end of the experiment the animals were sacrificed, their general state was observed, the following organs were weighed: liver, spleen, kidneys, supranenes, ovary and testicles, lungs, heart, stomach.

[5] = chlorophenazole 51.5 mg/kg oral + pentobarbital sodium 20 mg/kg

Compound: Cc1[nH]cnc1-c1ccc(Cl)cc1 [Chlorophenazole, 4-(p-chlorophenyl)-5-methylimidazole]
- action on sleep by barbiturates ([1]; 1/10 of the DL50 oral): improves sleep by barbiturates
- Induction time [1, 5]: 2.9 min
- Sleeping time [1, 5]: 65.2 min
- dependence of activity on the suprarenal cortex ([2]; adrenoprival rats): independent of the suprarenal cortex
- Edema by carrageen ([2]; adrenoprival rats, 10 mg/kg, 1.5 hours): 22
- Edema by carrageen ([2]; adrenoprival rats, 10 mg/kg, 3 hours): 27
- Edema by carrageen ([2]; adrenoprival rats, 10 mg/kg, 5 hours): 55
- Edema by carrageen ([2]; adrenoprival rats, 20 mg/kg, 1.5 hours): 16
- Edema by carrageen ([2]; adrenoprival rats, 20 mg/kg, 3 hours): 18
- Edema by carrageen ([2]; adrenoprival rats, 20 mg/kg, 5 hours): 45
- Edema by carrageen ([2]; adrenoprival rats, 40 mg/kg, 1.5 hours): 13
- Edema by carrageen ([2]; adrenoprival rats, 40 mg/kg, 3 hours): 20
- Edema by carrageen ([2]; adrenoprival rats, 40 mg/kg, 5 hours): 39
- Edema by carrageen ([2]; normal rats, 10 mg/kg, 1.5 hours): 15
- Edema by carrageen ([2]; normal rats, 10 mg/kg, 3 hours): 35
- Edema by carrageen ([2]; normal rats, 10 mg/kg, 5 hours): 58
- Edema by carrageen ([2]; normal rats, 20 mg/kg, 1.5 hours): 15
- Edema by carrageen ([2]; normal rats, 20 mg/kg, 3 hours): 29
- Edema by carrageen ([2]; normal rats, 20 mg/kg, 5 hours): 44
- Edema by carrageen ([2]; normal rats, 40 mg/kg, 1.5 hours): 15
- Edema by carrageen ([2]; normal rats, 40 mg/kg, 3 hours): 23
- Edema by carrageen ([2]; normal rats, 40 mg/kg, 5 hours): 42
- LD50 (in vivo; ip): 135 mg/kg
- LD50 (in vivo; po): 515 mg/kg
- DL100 (Rabbit): 55 mg/kg
- final framework (symptoms) (Rabbit): marked muscular hypotonia, an almost catatonic state and death by respiratory paralysis
- ml of exudate ([3]; 30 mg/Kg, pleural cavity): 3.11 mL
- activity on pleural exudate ([3]; exudate after 1 and 6 hours): significantly active
- % effect ([4]; 21.3 mg/kg oral): 18%
- Number of stretches/20 min. ([4]; 21.3 mg/kg oral): 70 stretches/20 min.
- % effect ([4]; 33.0 mg/kg oral): 42%
- Number of stretches/20 min. ([4]; 33.0 mg/kg oral): 49 stretches/20 min.
- % effect ([4]; 51.0 mg/kg oral): 66%
- Number of stretches/20 min. ([4]; 51.0 mg/kg oral): 29 stretches/20 min.
- analgesic activity ([4]; oral): very good analgesic activity, decidedly better than that of the clonixine (Table 5) and mepyrazole
- LD50 (Acute toxicity, mouse; ip): 175 mg/kg
- LD50 (Acute toxicity, mouse; po, os): 534 mg/kg
- cholesterol (rats; 6 mg/kg): significant alteration
- glycemia (rats; 12 mg/kg, female rats): small increase in glycemia
- cholesterol (rats; greater dose): not confirmed with the greater dose

Reference: US4499104A, “Imidazole compound, the process for its preparation, and therapeutically active compositions containing same” (priority 1976, dated 1985)
